Data from US20140303164A1, “THERAPEUTIC COMPOUNDS” (Gilead Sciences, Inc., priority 2013, published 2014).

Experiments:
HIV-IIIb = test: Test A: Antiviral Assay in MT4 Cells; format: cell-based, HIV-1; settings: Human immunodeficiency virus 1, IIIB, MT4, 120 h; for inhibition at 0.2 µM: read-out: % inhibition at 0.2 μM; for inhibition at 2 µM: read-out: % inhibition at 2 μM
Description: Test A: Antiviral Assay in MT4 Cells
MT-4 cells were next mixed with HIV-IIIb at an m.o.i of 0.003 for 1 hour, after which time 35 μL of virus/cell mixture (2000 cells) was immediately added to each well containing 40 μL of diluted compound. The plates were then incubated at 37° C. for 5 days. […] Cell lysis was carried out by incubating at room temperature for 10 min and then chemiluminescence was read.

[1] = Test B: Cytotoxicity Assay; format: cell-based; settings: human, uninfected MT-4 cells, same protocol as Test A
Outline: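 Uninfected MT-4 cells (2000 per well) incubated with diluted compound at 37° C. for 5 days, following the antiviral protocol without HIV-IIIb.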

SMILES | inhibition at 0.2 µM (HIV-IIIb) [%] | inhibition at 2 µM (HIV-IIIb) [%] | CC50 at 5 days [1] [µM]
CC(C)(O)C#Cc1ccc(-c2ccc(Cl)n3c(N)nnc23)c([C@H](Cc2cc(F)cc(F)c2)NC(=O)Cn2nc(C(F)(F)F)c3c2C(F)(F)[C@@H]2C[C@H]32)n1 [Compound 111, N—((S)-1-(3-(3-amino-5-chloro-[1,2,4]triazolo[4,3-a]pyridin-8-yl)-6-(3-hydroxy-3-methylbut-1-yn-1-yl)pyridin-2-yl)-2-(3,5-difluorophenyl)ethyl)-2-((3b-S,4aR)-5,5-difluoro-3-(trifluoromethyl)-3b,4,4a,5-tetrahydro-1H-cyclopropa[3,4]cyclopenta[1,2-c]pyrazol-1-yl)acetamide] | 89 | 90 | 9.59
COc1ccc(-c2ccc(C#CC(C)(C)O)nc2[C@H](Cc2cc(F)cc(F)c2)NC(=O)Cn2nc(C(F)F)c3c2C(F)(F)[C@@H]2C[C@H]32)c2c1c(N)nn2C [Compound 114G, N—((S)-1-(3-(3-amino-4-methoxy-1-methyl-1H-indazol-7-yl)-6-(3-hydroxy-3-methylbut-1-yn-1-yl)pyridin-2-yl)-2-(3,5-difluorophenyl)ethyl)-2-((3b-S,4aR)-3-(difluoromethyl)-5,5-difluoro-3b,4,4a,5-tetrahydro-1H-cyclopropa[3,4]cyclopenta[1,2-c]pyrazol-1-yl)acetamide] | 100 | 100 | 14.8
CC(C)(C)C#Cc1ccc(-c2ccc(Cl)n3c(N)nnc23)c([C@H](Cc2cc(F)cc(F)c2)NC(=O)Cn2nc(C(F)F)c3c2C(F)(F)[C@@H]2C[C@H]32)n1 [Compound 115C, N—((S)-1-(3-(3-amino-5-chloro-[1,2,4]triazolo[4,3-a]pyridin-8-yl)-6-(3,3-dimethylbut-1-yn-1-yl)pyridin-2-yl)-2-(3,5-difluorophenyl)ethyl)-2-((3b-S,4aR)-3-(difluoromethyl)-5,5-difluoro-3b,4,4a,5-tetrahydro-1H-cyclopropa[3,4]cyclopenta[1,2-c]pyrazol-1-yl)acetamide] | 84 | 91 | 9.31
Cc1ccc(-c2ccc(C#CC(C)(C)C)nc2[C@H](Cc2cc(F)cc(F)c2)NC(=O)Cn2nc(C(F)F)c3c2C(F)(F)[C@@H]2C[C@H]32)c2nnc(N)n12 [Compound 116A, N—((S)-1-(3-(3-amino-5-methyl-[1,2,4]triazolo[4,3-a]pyridin-8-yl)-6-(3,3-dimethylbut-1-yn-1-yl)pyridin-2-yl)-2-(3,5-difluorophenyl)ethyl)-2-((3b-S,4aR)-3-(difluoromethyl)-5,5-difluoro-3b,4,4a,5-tetrahydro-1H-cyclopropa[3,4]cyclopenta[1,2-c]pyrazol-1-yl)acetamide] | 62 | 93 | 10.5
CC(C)(O)C#Cc1ccc(-c2cccn3c(NCC(F)(F)F)nnc23)c([C@H](Cc2cc(F)cc(F)c2)NC(=O)Cn2nc(C(F)F)c3c2C(F)(F)[C@@H]2C[C@H]32)n1 [Compound 117F, 2-((3b-S,4aR)-3-(difluoromethyl)-5,5-difluoro-3b,4,4a,5-tetrahydro-1H-cyclopropa[3,4]cyclopenta[1,2-c]pyrazol-1-yl)-N—((S)-2-(3,5-difluorophenyl)-1-(6-(3-hydroxy-3-methylbut-1-yn-1-yl)-3-(3-((2,2,2-trifluoroethyl)amino)-[1,2,4]triazolo[4,3-a]pyridin-8-yl)pyridin-2-yl)ethyl)acetamide] | 93 | 100 | 27.8
CC(C)(C)C#Cc1ccc(-c2ccc(Cl)n3c(NS(C)(=O)=O)nnc23)c([C@H](Cc2cc(F)cc(F)c2)NC(=O)Cn2nc(C(F)F)c3c2C(F)(F)[C@@H]2C[C@H]32)n1 [Compound 118, N—((S)-1-(3-(5-chloro-3-(methylsulfonamido)-[1,2,4]triazolo[4,3-a]pyridin-8-yl)-6-(3,3-dimethylbut-1-yn-1-yl)pyridin-2-yl)-2-(3,5-difluorophenyl)ethyl)-2-((3b-S,4aR)-3-(difluoromethyl)-5,5-difluoro-3b,4,4a,5-tetrahydro-1H-cyclopropa[3,4]cyclopenta[1,2-c]pyrazol-1-yl)acetamide] | 96 | 96 | 23.9
Cn1nc(NS(N)(=O)=O)c2c(Cl)ccc(-c3ccc(C#CC(C)(C)O)nc3[C@H](Cc3cc(F)cc(F)c3)NC(=O)Cn3nc(C(F)(F)F)c4c3C(F)(F)[C@@H]3C[C@H]43)c21 [Compound 119C, N—((S)-1-(3-(4-chloro-1-methyl-3-(sulfamoylamino)-1H-indazol-7-yl)-6-(3-hydroxy-3-methylbut-1-yn-1-yl)pyridin-2-yl)-2-(3,5-difluorophenyl)ethyl)-2-((3b-S,4aR)-5,5-difluoro-3-(trifluoromethyl)-3b,4,4a,5-tetrahydro-1H-cyclopropa[3,4]cyclopenta[1,2-c]pyrazol-1-yl)acetamide] | 99 | 99 | 9.24
Cc1nc(NS(C)(=O)=O)c2cccc(-c3ccc(C#CC(C)(C)O)nc3[C@H](Cc3cc(F)cc(F)c3)NC(=O)Cn3nc(C(F)F)c4c3C(F)(F)[C@@H]3C[C@H]43)n12 [Compound 120H, 2-((3b-S,4aR)-3-(difluoromethyl)-5,5-difluoro-3b,4,4a,5-tetrahydro-1H-cyclopropa[3,4]cyclopenta[1,2-c]pyrazol-1-yl)-N—((S)-2-(3,5-difluorophenyl)-1-(6-(3-hydroxy-3-methylbut-1-yn-1-yl)-3-(3-methyl-1-(methylsulfonamido)imidazo[1,5-a]pyridin-5-yl)pyridin-2-yl)ethyl)acetamide] | 51 | 88 | 11.7
Cc1nc(NS(C)(=O)=O)c2cccc(-c3ccc(C#CC(C)(C)O)nc3[C@H](Cc3cc(F)cc(F)c3)NC(=O)Cn3nc(C(F)(F)F)c4c3C(F)(F)[C@@H]3C[C@H]43)n12 [Compound 121, 2-((3bS,4aR)-5,5-difluoro-3-(trifluoromethyl)-3b,4,4a,5-tetrahydro-1H-cyclopropa[3,4]cyclopenta[1,2-c]pyrazol-1-yl)-N—((S)-2-(3,5-difluorophenyl)-1-(6-(3-hydroxy-3-methylbut-1-yn-1-yl)-3-(3-methyl-1-(methylsulfonamido)imidazo[1,5-a]pyridin-5-yl)pyridin-2-yl)ethyl)acetamide] | 46 | 98 | 9.18
Cn1nc(NS(N)(=O)=O)c2c(Cl)ccc(-c3ccc(C#CC(C)(C)O)nc3[C@H](Cc3cc(F)cc(F)c3)NC(=O)Cn3nc(C(F)F)c4c3C(F)(F)CCC4(F)F)c21 [Compound 122, (S)—N-(1-(3-(4 chloro-1-methyl-3-(sulfamoylamino)-1H-indazol-7-yl)-6-(3-hydroxy-3-methylbut-1-yn-1-yl)pyridin-2-yl)-2-(3,5-difluorophenyl)ethyl)-2-(3-(difluoromethyl)-4,4,7,7-tetrafluoro-4,5,6,7-tetrahydro-1H-indazol-1-yl)acetamide] | 88 | 88 | 9.07
CNS(=O)(=O)Nc1nn(C)c2c(-c3ccc(C#CC(C)(C)O)nc3[C@H](Cc3cc(F)cc(F)c3)NC(=O)Cn3nc(C(F)F)c4c3C(F)(F)[C@@H]3C[C@H]43)ccc(Cl)c12 [Compound 123, N—((S)-1-(3-(4-chloro-1-methyl-3-((N-methylsulfamoyl)amino)-1H-indazol-7-yl)-6-(3-hydroxy-3-methylbut-1-yn-1-yl)pyridin-2-yl)-2-(3,5-difluorophenyl)ethyl)-2-((3b-S,4aR)-3-(difluoromethyl)-5,5-difluoro-3b,4,4a,5-tetrahydro-1H-cyclopropa[3,4]cyclopenta[1,2-c]pyrazol-1-yl)acetamide] | 90 | 90 | 7.9
Cn1nc(NS(C)(=O)=O)c2c(Cl)ccc(-c3ccc(C#CC(C)(C)O)nc3[C@H](Cc3cc(F)cc(F)c3)NC(=O)Cn3nc(C(F)(F)F)c4c3CCCC4)c21 [Compound 124, (S)—N-(1-(3-(4 chloro-1-methyl-3-(methylsulfonamido)-1H-indazol-7-yl)-6-(3-hydroxy-3-methylbut-1-yn-1-yl)pyridin-2-yl)-2-(3,5-difluorophenyl)ethyl)-2-(3-(trifluoromethyl)-4,5,6,7-tetrahydro-1H-indazol-1-yl)acetamide] | 97 | 97 | 9.14
Cn1nc(NS(C)(=O)=O)c2c(Cl)ccc(-c3ccc(C#CC(C)(C)O)nc3[C@H](Cc3cc(F)cc(F)c3)NC(=O)Cn3nc4c(c3Cl)CCCC4)c21 [Compound 125D, (S)—N-(1-(3-(4 chloro-1-methyl-3-(methylsulfonamido)-1H-indazol-7-yl)-6-(3-hydroxy-3-methylbut-1-yn-1-yl)pyridin-2-yl)-2-(3,5-difluorophenyl)ethyl)-2-(3-chloro-4,5,6,7-tetrahydro-2H-indazol-2-yl)acetamide] | 96 | 97 | 13.6
Cn1nc(NS(C)(=O)=O)c2c(Cl)ccc(-c3ccc(C#CC(C)(C)O)nc3[C@H](Cc3cc(F)cc(F)c3)NC(=O)Cn3nc(Cl)c4c3CCCC4)c21 [Compound 126, (S)—N-(1-(3-(4 chloro-1-methyl-3-(methylsulfonamido)-1H-indazol-7-yl)-6-(3-hydroxy-3-methylbut-1-yn-1-yl)pyridin-2-yl)-2-(3,5-difluorophenyl)ethyl)-2-(3-chloro-4,5,6,7-tetrahydro-1H-indazol-1-yl)acetamide] | 92 | 92 | 15.5
